# Patent US20070191491A1, “[…] OF STORED GOODS, ENCLOSURES, […] WORKS OF ART, WITH SULPHUR COMPOUNDS” (Arkema France, priority 2002, published 2007)
# Tests used:
# Sitophilus orizae = test: Efficacy of DMDS in a silo of wheat grains infested with Sitophilus orizae; type: in vivo; conditions: same trial conditions, 20° C.
# Experimental: (§1) These two organisms are Sitophilus granarius and Sitophilus orizae.
# (§2) Dimensions of the silo: • total height: 40 cm • total volume: 3.3 l • filling level: 75%, that is a grain height of […].
# (§3) 99 mg of pure DMDS are deposited at the surface of the grains using a syringe. The samples collected consist of bundles of 50 g of wheat containing all the stages of development of the pathogenic organisms. After degassing by aeration of the silo at the times T, the bundles of wheat are screened and the adults are counted immediately after screening (D+0) and after 14 days (D+14). The wheat containing the other stages of development is then examined for 5 weeks.
# The products CT of the concentrations C of DMDS by the times of measurement T are determined and the efficacy of the treatment in relation to the 2 pathogenic organisms studied for all the stages of development is monitored as a function of these products CT. […]
# Under the same trial conditions, this time on organisms of the Sitophilus orizae type, similar results are obtained. The pesticidal efficacy of DMDS against the pathogenic organism Sitophilus orizae is evaluated in terms of the product CT at about 100 ghm^−3 (useful CT).
# Sitophilus granarius = test: Efficacy of DMDS in a silo of wheat grains infested with Sitophilus granarius (adult mortality, % NER); type: in vivo; conditions: for Total No. of insects emerged: untreated control 271
# Experimental: as §1, §2, §3
# The products CT of the concentrations C of DMDS by the times of measurement T are determined and the efficacy of the treatment in relation to the 2 pathogenic organisms studied for all the stages of development is monitored as a function of these products CT. The results are expressed: • as a percentage of the adult mortality at the times (D+0) and (D+14). • as a percentage of net emergence reduction (% NER) relative to an untreated control batch for the different stages of development of these organisms (that is to say eggs and 2nd generation, eggs and 1st stage larvae, 1st and 2nd stage larvae, 2nd and 3rd stage larvae, 3rd and 4th stage larvae, 4th stage larvae and nymphs), which corresponds to the following formula: % NER=(number of insects which emerged live from the control batch−number of insects which emerged live from the treated batch)/(number of insects which emerged live from the control batch).
smiles,measurement,setting,value
"CSSC [DMDS, dimethyl disulphide]",pesticidal efficacy in terms of the product CT (useful CT),Sitophilus orizae,about 100 ghm^−3
same,% NER Eggs and 2nd generation,"Sitophilus granarius; CT 5.8 gh.m^−3, 20° C.",13%
same,% NER Eggs and Ist stage larvae,"Sitophilus granarius; CT 5.8 gh.m^−3, 20° C.",41%
same,% NER IIIrd and IVth stage larvae,"Sitophilus granarius; CT 5.8 gh.m^−3, 20° C.",3%
same,% NER IInd and IIIrd stage larvae,"Sitophilus granarius; CT 5.8 gh.m^−3, 20° C.",13%
same,% NER IVth stage larvae and nymphs,"Sitophilus granarius; CT 5.8 gh.m^−3, 20° C.",21%
same,% NER Ist and IInd stage larvae,"Sitophilus granarius; CT 5.8 gh.m^−3, 20° C.",20%
same,% adult mortality D + 0,"Sitophilus granarius; CT 5.8 gh.m^−3, 20° C.",0%
same,% adult mortality D + 14,"Sitophilus granarius; CT 5.8 gh.m^−3, 20° C.",8%
same,Total % NER,"Sitophilus granarius; CT 5.8 gh.m^−3, 20° C.",25%
same,Total No. of insects emerged,"Sitophilus granarius; CT 5.8 gh.m^−3, 20° C.",202
same,% NER Eggs and 2nd generation,"Sitophilus granarius; CT 6.1 gh.m^−3, 20° C.",33%
same,% NER Eggs and Ist stage larvae,"Sitophilus granarius; CT 6.1 gh.m^−3, 20° C.",5%
same,% NER IIIrd and IVth stage larvae,"Sitophilus granarius; CT 6.1 gh.m^−3, 20° C.",19%
same,% NER IInd and IIIrd stage larvae,"Sitophilus granarius; CT 6.1 gh.m^−3, 20° C.",16%
same,% NER IVth stage larvae and nymphs,"Sitophilus granarius; CT 6.1 gh.m^−3, 20° C.",54%
same,% NER Ist and IInd stage larvae,"Sitophilus granarius; CT 6.1 gh.m^−3, 20° C.",80%
same,% adult mortality D + 0,"Sitophilus granarius; CT 6.1 gh.m^−3, 20° C.",3%
same,% adult mortality D + 14,"Sitophilus granarius; CT 6.1 gh.m^−3, 20° C.",9%
same,Total % NER,"Sitophilus granarius; CT 6.1 gh.m^−3, 20° C.",23%
same,Total No. of insects emerged,"Sitophilus granarius; CT 6.1 gh.m^−3, 20° C.",208
same,% NER Eggs and 2nd generation,"Sitophilus granarius; CT 15.0 gh.m^−3, 20° C.",25%
same,% NER Eggs and Ist stage larvae,"Sitophilus granarius; CT 15.0 gh.m^−3, 20° C.",54%
same,% NER IIIrd and IVth stage larvae,"Sitophilus granarius; CT 15.0 gh.m^−3, 20° C.",26%
same,% NER IInd and IIIrd stage larvae,"Sitophilus granarius; CT 15.0 gh.m^−3, 20° C.",71%
same,% NER IVth stage larvae and nymphs,"Sitophilus granarius; CT 15.0 gh.m^−3, 20° C.",75%
same,% NER Ist and IInd stage larvae,"Sitophilus granarius; CT 15.0 gh.m^−3, 20° C.",88%
same,% adult mortality D + 0,"Sitophilus granarius; CT 15.0 gh.m^−3, 20° C.",64%
same,% adult mortality D + 14,"Sitophilus granarius; CT 15.0 gh.m^−3, 20° C.",93%
same,Total % NER,"Sitophilus granarius; CT 15.0 gh.m^−3, 20° C.",54%
same,Total No. of insects emerged,"Sitophilus granarius; CT 15.0 gh.m^−3, 20° C.",126
same,% NER Eggs and 2nd generation,"Sitophilus granarius; CT 26.9 gh.m^−3, 20° C.",20%
same,% NER Eggs and Ist stage larvae,"Sitophilus granarius; CT 26.9 gh.m^−3, 20° C.",79%
same,% NER IIIrd and IVth stage larvae,"Sitophilus granarius; CT 26.9 gh.m^−3, 20° C.",65%
same,% NER IInd and IIIrd stage larvae,"Sitophilus granarius; CT 26.9 gh.m^−3, 20° C.",94%
same,% NER IVth stage larvae and nymphs,"Sitophilus granarius; CT 26.9 gh.m^−3, 20° C.",92%
same,% NER Ist and IInd stage larvae,"Sitophilus granarius; CT 26.9 gh.m^−3, 20° C.",88%
same,% adult mortality D + 0,"Sitophilus granarius; CT 26.9 gh.m^−3, 20° C.",92%
same,% adult mortality D + 14,"Sitophilus granarius; CT 26.9 gh.m^−3, 20° C.",92%
same,Total % NER,"Sitophilus granarius; CT 26.9 gh.m^−3, 20° C.",72%
same,Total No. of insects emerged,"Sitophilus granarius; CT 26.9 gh.m^−3, 20° C.",75
same,% NER Eggs and 2nd generation,"Sitophilus granarius; CT 50.5 gh.m^−3, 20° C.",93%
same,% NER Eggs and Ist stage larvae,"Sitophilus granarius; CT 50.5 gh.m^−3, 20° C.",100%
same,% NER IIIrd and IVth stage larvae,"Sitophilus granarius; CT 50.5 gh.m^−3, 20° C.",97%
same,% NER IInd and IIIrd stage larvae,"Sitophilus granarius; CT 50.5 gh.m^−3, 20° C.",100%
same,% NER IVth stage larvae and nymphs,"Sitophilus granarius; CT 50.5 gh.m^−3, 20° C.",100%
same,% NER Ist and IInd stage larvae,"Sitophilus granarius; CT 50.5 gh.m^−3, 20° C.",100%
same,% adult mortality D + 0,"Sitophilus granarius; CT 50.5 gh.m^−3, 20° C.",100%
same,% adult mortality D + 14,"Sitophilus granarius; CT 50.5 gh.m^−3, 20° C.",100%
same,Total % NER,"Sitophilus granarius; CT 50.5 gh.m^−3, 20° C.",99%
same,Total No. of insects emerged,"Sitophilus granarius; CT 50.5 gh.m^−3, 20° C.",4
same,% NER Eggs and 2nd generation,"Sitophilus granarius; CT 88.4 gh.m^−3, 20° C.",95%
same,% NER Eggs and Ist stage larvae,"Sitophilus granarius; CT 88.4 gh.m^−3, 20° C.",100%
same,% NER IIIrd and IVth stage larvae,"Sitophilus granarius; CT 88.4 gh.m^−3, 20° C.",100%
same,% NER IInd and IIIrd stage larvae,"Sitophilus granarius; CT 88.4 gh.m^−3, 20° C.",100%
same,% NER IVth stage larvae and nymphs,"Sitophilus granarius; CT 88.4 gh.m^−3, 20° C.",100%
same,% NER Ist and IInd stage larvae,"Sitophilus granarius; CT 88.4 gh.m^−3, 20° C.",100%
same,% adult mortality D + 0,"Sitophilus granarius; CT 88.4 gh.m^−3, 20° C.",100%
same,% adult mortality D + 14,"Sitophilus granarius; CT 88.4 gh.m^−3, 20° C.",100%
same,Total % NER,"Sitophilus granarius; CT 88.4 gh.m^−3, 20° C.",99%
same,Total No. of insects emerged,"Sitophilus granarius; CT 88.4 gh.m^−3, 20° C.",2
same,% NER Eggs and 2nd generation,"Sitophilus granarius; CT 160.4 gh.m^−3, 20° C.",100%
same,% NER Eggs and Ist stage larvae,"Sitophilus granarius; CT 160.4 gh.m^−3, 20° C.",100%
same,% NER IIIrd and IVth stage larvae,"Sitophilus granarius; CT 160.4 gh.m^−3, 20° C.",100%
same,% NER IInd and IIIrd stage larvae,"Sitophilus granarius; CT 160.4 gh.m^−3, 20° C.",100%
same,% NER IVth stage larvae and nymphs,"Sitophilus granarius; CT 160.4 gh.m^−3, 20° C.",100%
same,% NER Ist and IInd stage larvae,"Sitophilus granarius; CT 160.4 gh.m^−3, 20° C.",100%
same,% adult mortality D + 0,"Sitophilus granarius; CT 160.4 gh.m^−3, 20° C.",100%
same,% adult mortality D + 14,"Sitophilus granarius; CT 160.4 gh.m^−3, 20° C.",100%
same,Total % NER,"Sitophilus granarius; CT 160.4 gh.m^−3, 20° C.",100%
same,Total No. of insects emerged,"Sitophilus granarius; CT 160.4 gh.m^−3, 20° C.",0
same,mortality for the majority of the stages,Sitophilus granarius; CT values greater than 50 gh.m^−3,100%
same,mortality for all the stages of development,Sitophilus granarius; product CT of 160 gh.m^−3,100%
same,pesticidal efficacy in terms of the product CT (useful CT),"Sitophilus granarius; wheat silo, 20° C.",about 100 ghm^−3
